Experimental data from patent US8802661B2, “C-28 amides of modified C-3 betulinic acid derivatives as HIV maturation inhibitors” (priority 2010, dated 2014).
Counter-ions that a name gives are not always drawn. Like-named read-outs stand apart in the source and are kept apart here.

System: recombinant NL4-3 virus (Renilla luciferase in nef, Gag P373S)
Test: HIV Cell Culture Assay (luciferase reporter virus in MT-2 cells)
Assay type: cell-based
Experimental: MT-2 cells and 293T cells were obtained from the NIH AIDS Research and Reference Reagent Program. MT-2 cells were propagated in RPMI 1640 media supplemented with 10% heat inactivated fetal bovine serum, […]. The 293T cells were propagated in DMEM media supplemented with 10% heat inactivated fetal bovine serum (FBS), 100 units/ml penicillin G and 100 μg/ml streptomycin. The proviral DNA clone of NL4-3 was obtained from the NIH AIDS Research and Reference Reagent Program. A recombinant NL4-3 virus, in which a section of the nef gene from NL4-3 was replaced with the Renilla luciferase gene, was used as a reference virus. In addition, residue Gag P373 was converted to P373S. Briefly, the recombinant virus was prepared by transfection of the altered proviral clone of NL4-3. Transfections were performed in 293T cells using LipofectAMINE PLUS from Invitrogen (Carlsbad, Calif.), according to manufacturer's instruction. The virus was titered in MT-2 cells using luciferase enzyme activity as a marker. Luciferase was quantitated using the Dual Luciferase kit from Promega (Madison, Wis.), with modifications to the manufacturer's protocol. The diluted Passive Lysis solution was pre-mixed with the re-suspended Luciferase Assay Reagent and the re-suspended Stop & Glo Substrate (2:1:1 ratio). Fifty (50) μL of the mixture was added to each aspirated well on assay plates and luciferase activity was measured immediately on a Wallac TriLux (Perkin-Elmer). Antiviral activities of inhibitors toward the recombinant virus were quantified by measuring luciferase activity in cells infected for 4-5 days with NLRluc recombinants in the presence serial dilutions of the inhibitor. Table 1 is the key for the data in Table 2.

Row | Compound | EC50 (NL43, read-out: EC50 Group) | EC50 (NL43)
1 | C=C(C)[C@@H]1CC[C@]2(C(=O)NCCc3ccccn3)CC[C@]3(C)[C@H](CC[C@@H]4[C@@]5(C)CC=C(c6ccc(C(=O)O)cc6)C(C)(C)[C@@H]5CC[C@]43C)[C@@H]12 [Example 1, 4-((1R,3aS,5aR,5bR,7aR,11aS,11bR,13aR,13bR)-5a,5b,8,8,11a-pentamethyl-1-(prop-1-en-2-yl)-3a-(2-(pyridin-2-yl)ethylcarbamoyl)-2,3,3a,4,5,5a,5b,6,7,7a,8,11,11a,11b,12,13,13a,13b-octadecahydro-1H-cyclopenta[a]chrysen-9-yl)benzoic acid] | < 100 nM | 
2 | C=C(C)[C@@H]1CC[C@]2(C(=O)NCc3ccccn3)CC[C@]3(C)[C@H](CC[C@@H]4[C@@]5(C)CC=C(c6ccc(C(=O)O)cc6)C(C)(C)[C@@H]5CC[C@]43C)[C@@H]12 [Example 2, 4-((1R,3aS,5aR,5bR,7aR,11aS,11bR,13aR,13bR)-5a,5b,8,8,11a-pentamethyl-1-(prop-1-en-2-yl)-3a-(pyridin-2-ylmethylcarbamoyl)-2,3,3a,4,5,5a,5b,6,7,7a,8,11,11a,11b,12,13,13a,13b-octadecahydro-1H-cyclopenta[a]chrysen-9-yl)benzoic acid] | < 100 nM | 
3 | C=C(C)[C@@H]1CC[C@]2(C(=O)NCCc3cccnc3)CC[C@]3(C)[C@H](CC[C@@H]4[C@@]5(C)CC=C(c6ccc(C(=O)O)cc6)C(C)(C)[C@@H]5CC[C@]43C)[C@@H]12 [Example 3, 4-((1R,3aS,5aR,5bR,7aR,11aS,11bR,13aR,13bR)-5a,5b,8,8,11a-pentamethyl-1-(prop-1-en-2-yl)-3a-(2-(pyridin-3-yl)ethylcarbamoyl)-2,3,3a,4,5,5a,5b,6,7,7a,8,11,11a,11b,12,13,13a,13b-octadecahydro-1H-cyclopenta[a]chrysen-9-yl)benzoic acid] | < 100 nM | 
4 | C=C(C)[C@@H]1CC[C@]2(C(=O)NCCc3ccc(OC)cc3)CC[C@]3(C)[C@H](CC[C@@H]4[C@@]5(C)CC=C(c6ccc(C(=O)O)cc6)C(C)(C)[C@@H]5CC[C@]43C)[C@@H]12 [Example 4, 4-((1R,3aS,5aR,5bR,7aR,11aS,11bR,13aR,13bR)-3a-(4-methoxyphenethylcarbamoyl)-5a,5b,8,8,11a-pentamethyl-1-(prop-1-en-2-yl)-2,3,3a,4,5,5a,5b,6,7,7a,8,11,11a,11b,12,13,13a,13b-octadecahydro-1H-cyclopenta[a]chrysen-9-yl)benzoic acid] | < 100 nM | 
5 | C=C(C)[C@@H]1CC[C@]2(C(=O)NC3(c4ccccn4)CC3)CC[C@]3(C)[C@H](CC[C@@H]4[C@@]5(C)CC=C(c6ccc(C(=O)O)cc6)C(C)(C)[C@@H]5CC[C@]43C)[C@@H]12 [Example 5, 4-((1R,3aS,5aR,5bR,7aR,11aS,11bR,13aR,13bR)-5a,5b,8,8,11a-pentamethyl-1-(prop-1-en-2-yl)-3a-(1-(pyridin-2-yl)cyclopropylcarbamoyl)-2,3,3a,4,5,5a,5b,6,7,7a,8,11,11a,11b,12,13,13a,13b-octadecahydro-1H-cyclopenta[a]chrysen-9-yl)benzoic acid] | < 100 nM | 
6 | C=C(C)[C@@H]1CC[C@]2(C(=O)NS(=O)(=O)C3CC3)CC[C@]3(C)[C@H](CC[C@@H]4[C@@]5(C)CC=C(c6ccc(C(=O)O)cc6)C(C)(C)[C@@H]5CC[C@]43C)[C@@H]12 [Example 6, 4-((1R,3aS,5aR,5bR,7aR,11aS,11bR,13aR,13bR)-3a-(cyclopropylsulfonylcarbamoyl)-5a,5b,8,8,11a-pentamethyl-1-(prop-1-en-2-yl)-2,3,3a,4,5,5a,5b,6,7,7a,8,11,11a,11b,12,13,13a,13b-octadecahydro-1H-cyclopenta[a]chrysen-9-yl)benzoic acid] | < 100 nM | 
7 | C=C(C)[C@@H]1CC[C@]2(C(=O)NS(=O)(=O)N(C)C)CC[C@]3(C)[C@H](CC[C@@H]4[C@@]5(C)CC=C(c6ccc(C(=O)O)cc6)C(C)(C)[C@@H]5CC[C@]43C)[C@@H]12 [Example 7, 4-((1R,3aS,5aR,5bR,7aR,11aS,11bR,13aR,13bR)-3a-(N,N-dimethylsulfamoylcarbamoyl)-5a,5b,8,8,11a-pentamethyl-1-(prop-1-en-2-yl)-2,3,3a,4,5,5a,5b,6,7,7a,8,11,11a,11b,12,13,13a,13b-octadecahydro-1H-cyclopenta[a]chrysen-9-yl)benzoic acid] | < 100 nM | 
8 | C=C(C)[C@@H]1CC[C@]2(C(=O)NS(C)(=O)=O)CC[C@]3(C)[C@H](CC[C@@H]4[C@@]5(C)CC=C(c6ccc(C(=O)O)cc6)C(C)(C)[C@@H]5CC[C@]43C)[C@@H]12 [Example 8, 4-((1R,3aS,5aR,5bR,7aR,11aS,11bR,13aR,13bR)-5a,5b,8,8,11a-pentamethyl-3a-(methylsulfonylcarbamoyl)-1-(prop-1-en-2-yl)-2,3,3a,4,5,5a,5b,6,7,7a,8,11,11a,11b,12,13,13a,13b-octadecahydro-1H-cyclopenta[a]chrysen-9-yl)benzoic acid] | < 100 nM | 
9 | C=C(C)[C@@H]1CC[C@]2(C(=O)N3CCC[C@@H]3CO)CC[C@]3(C)[C@H](CC[C@@H]4[C@@]5(C)CC=C(c6ccc(C(=O)O)cc6)C(C)(C)[C@@H]5CC[C@]43C)[C@@H]12 [Example 9, 4-((1R,3aS,5aR,5bR,7aR,11aS,11bR,13aR,13bR)-3a-((R)-2-(hydroxymethyl)pyrrolidine-1-carbonyl)-5a,5b,8,8,11a-pentamethyl-1-(prop-1-en-2-yl)-2,3,3a,4,5,5a,5b,6,7,7a,8,11,11a,11b,12,13,13a,13b-octadecahydro-1H-cyclopenta[a]chrysen-9-yl)benzoic acid] | < 100 nM | 
10 | C=C(C)[C@@H]1CC[C@]2(C(=O)N3CCN(C)CC3)CC[C@]3(C)[C@H](CC[C@@H]4[C@@]5(C)CC=C(c6ccc(C(=O)O)cc6)C(C)(C)[C@@H]5CC[C@]43C)[C@@H]12 [Example 10, 4-((1R,3aS,5aR,5bR,7aR,11aS,11bR,13aR,13bR)-5a,5b,8,8,11a-pentamethyl-3a-(4-methylpiperazine-1-carbonyl)-1-(prop-1-en-2-yl)-2,3,3a,4,5,5a,5b,6,7,7a,8,11,11a,11b,12,13,13a,13b-octadecahydro-1H-cyclopenta[a]chrysen-9-yl)benzoic acid] | < 100 nM | 
11 | C=C(C)[C@@H]1CC[C@]2(C(=O)N3CCCC(C(=O)N(CC)CC)C3)CC[C@]3(C)[C@H](CC[C@@H]4[C@@]5(C)CC=C(c6ccc(C(=O)O)cc6)C(C)(C)[C@@H]5CC[C@]43C)[C@@H]12 (stereo partly drawn) [Example 11, 4-((1R,3aS,5aR,5bR,7aR,11aS,11bR,13aR,13bR)-3a-(3-(diethylcarbamoyl)piperidine-1-carbonyl)-5a,5b,8,8,11a-pentamethyl-1-(prop-1-en-2-yl)-2,3,3a,4,5,5a,5b,6,7,7a,8,11,11a,11b,12,13,13a,13b-octadecahydro-1H-cyclopenta[a]chrysen-9-yl)benzoic acid] |  | 61 nM
12 | C=C(C)[C@@H]1CC[C@]2(C(=O)NCCN3CCOCC3)CC[C@]3(C)[C@H](CC[C@@H]4[C@@]5(C)CC=C(c6ccc(C(=O)O)cc6)C(C)(C)[C@@H]5CC[C@]43C)[C@@H]12 [Example 12, 4-((1R,3aS,5aR,5bR,7aR,11aS,11bR,13aR,13bR)-5a,5b,8,8,11a-pentamethyl-3a-(2-morpholinoethylcarbamoyl)-1-(prop-1-en-2-yl)-2,3,3a,4,5,5a,5b,6,7,7a,8,11,11a,11b,12,13,13a,13b-octadecahydro-1H-cyclopenta[a]chrysen-9-yl)benzoic acid] | < 100 nM | 
13 | C=C(C)[C@@H]1CC[C@]2(C(=O)N3CCN(CCO)CC3)CC[C@]3(C)[C@H](CC[C@@H]4[C@@]5(C)CC=C(c6ccc(C(=O)O)cc6)C(C)(C)[C@@H]5CC[C@]43C)[C@@H]12 [Example 13, 4-((1R,3aS,5aR,5bR,7aR,11aS,11bR,13aR,13bR)-3a-(4-(2-hydroxyethyl)piperazine-1-carbonyl)-5a,5b,8,8,11a-pentamethyl-1-(prop-1-en-2-yl)-2,3,3a,4,5,5a,5b,6,7,7a,8,11,11a,11b,12,13,13a,13b-octadecahydro-1H-cyclopenta[a]chrysen-9-yl)benzoic acid, TFA] | < 100 nM | 
14 | C=C(C)[C@@H]1CC[C@]2(C(=O)Nc3ccc(OC)cc3)CC[C@]3(C)[C@H](CC[C@@H]4[C@@]5(C)CC=C(c6ccc(C(=O)O)cc6)C(C)(C)[C@@H]5CC[C@]43C)[C@@H]12 [Example 14, 4-((1R,3aS,5aR,5bR,7aR,11aS,11bR,13aR,13bR)-3a-(4-methoxyphenylcarbamoyl)-5a,5b,8,8,11a-pentamethyl-1-(prop-1-en-2-yl)-2,3,3a,4,5,5a,5b,6,7,7a,8,11,11a,11b,12,13,13a,13b-octadecahydro-1H-cyclopenta[a]chrysen-9-yl)benzoic acid] |  | 110 nM
15 | C=C(C)[C@@H]1CC[C@]2(C(=O)NCc3ccc(OC)cc3)CC[C@]3(C)[C@H](CC[C@@H]4[C@@]5(C)CC=C(c6ccc(C(=O)O)cc6)C(C)(C)[C@@H]5CC[C@]43C)[C@@H]12 [Example 15, 4-((1R,3aS,5aR,5bR,7aR,11aS,11bR,13aR,13bR)-3a-(4-methoxybenzylcarbamoyl)-5a,5b,8,8,11a-pentamethyl-1-(prop-1-en-2-yl)-2,3,3a,4,5,5a,5b,6,7,7a,8,11,11a,11b,12,13,13a,13b-octadecahydro-1H-cyclopenta[a]chrysen-9-yl)benzoic acid] | < 100 nM | 
